Assay results reported in patent US20100279942A1, “METHODS FOR TREATING MOTOR NEURON DISEASE” (priority 2004, published 2010).
Several values for one entry are separate records, joined by “and”; a condition that tells them apart may be missing. Equal values may be shown once. Entries after “also recorded” stand apart in the source; their conditions may differ. Ends that are not written are not given here.

Columns and labels:
SOD1 proteins = assay: Immunoblot analysis of SOD1 protein expression in transformed cells; type: cell-based, mouse and rat/mouse hybrid; settings: ADNF treatment; F11 and NSC34 cells
Experimental: Immunoblot analysis was conducted according to the previous report (Hashimoto Y, et al., supra, p. 6336-6341). To examine the protein expression of wild-type or SOD1 mutant genes, lysates from the cells transfected with each SOD1 gene were subjected to SDS-PAGE (20 μg/lane). After electrical blotting to a PVDF membrane, the membrane was blocked by a typical method and reacted with an anti-SOD1 antibody and then with a 1:5000-diluted horseradish peroxidase-conjugated anti-mouse IgG antibody (Bio-Rad Lab. Hercules, Calif., USA). The antibody-reactive bands were detected by ECL (Amersham Pharmacia Biotech, Uppsala, Sweden).

[1] = system: F11 cells transformed with SOD1 mutant (A4T-SOD1, G85R-SOD1, G93R-SOD1) genes; assay: Neuronal cell death test, Trypan blue exclusion assay, F11 cells transformed with SOD1 mutant genes; type: cell-based, rat/mouse hybrid cell
Experimental: F11 cell, the hybrid cell of rat embryonic day 13 (E13) primary cultured neuronal cell with mouse neuroblastoma NTG18 cell, was cultured in Ham's F-12 medium (Life Technologies, Gaithersburg, Md.) containing 18% FBS (Hyclone, Logan, Utah) and antibiotics as previously reported (Platika D, et al., 1985, Proc Natl Acad Sci USA 82: 3499-3503; Yamatsuji T, et al., 1996, Science 272: 1349-1352; Huang P, et al., 2000, Mol Hum Reprod 6: 1069-1078; and Niikura T, et al., 2001, J Neuroscience, 21: 1902-1910).
The F11 cells (7×10^4 cells/well, 6-well plate, 12- to 16-hour culture in Ham's F-12 (18% PBS) medium) were transformed with wild-type or SOD1 mutant (A4T, G85R, and G93R) genes by lipofection (0.5 μg of each SOD1 gene; 1 μl of LipofectAMINE; 2 μl of PLUS Reagent) under serum-free conditions for 3 hours and cultured for 2 hours in Ham's F-12 (18% PBS) medium. The medium was replaced by Ham's F-12 (10% PBS) in the presence or absence of ADNF. After 72 hours of the transformation, cell mortality was measured by Trypan blue exclusion assay as previously reported (Hashimoto Y, et al., 2001, J Neurosci 21: 9235-9245; and Hashimoto Y, et al, 2001, Proc Natl Acad Sci USA 98: 6336-6341). […]
Intracellular signaling by ADNF was examined. F11 cells were transformed with pEF-BOS or SOD1 mutant (A4T-SOD1, G85R-SOD1, or G93R-SOD1) cDNA and reacted with 10 nM wortmannin (PI3 kinase inhibitor), 100 μM genistein (tyrosine kinase inhibitor), 50 μM PD98059 (MEK inhibitor), 20 μM SB203580 (p38 MAPK inhibitor), 1 μM AG490 (JAK kinase inhibitor), 5 μM KN93 (calcium/calmodulin-dependent kinase inhibitor), or 10 μM HA1004 (protein kinase A inhibitor) in the presence or absence of 100 nM ADNF. After 72 hours of the transformation, cell mortality was measured by Trypan blue exclusion assay.
The effect of KN93 on the neuroprotective action of ADNF was examined. […] After 72 hours of the transformation, cell mortality was measured by Trypan blue exclusion assay. […]

G93A-SOD1 Tg mice = assay: Motor performance (rotarod), disease onset and survival in G93A-SOD1 Tg mice; type: in vivo, mouse
Excerpt: Transgenic (Tg) mice (hereinafter, referred to as “G93A-SOD1 Tg mice”) expressing human FALS-associated SOD1 mutant gene with a mutation (G93A) from Gly to Ala at 93 position are the best-established mouse model of ALS (Gurney M E, et al., 1994, Science 264: 1772-1775; and Gurney M E, et al., 1997, J Neurol Sci 152 Suppl 1: S67-73). The G93A-SOD1 Tg mice manifest symptoms quite similar to human ALS after normal birth and rapidly result in death in all cases. The G93A-SOD1 Tg mice, which have the onset of the regression of motor neurons similar clinically and pathologically to that in human ALS, have been known so far to be the most excellent model of ALS throughout the world and employed for identifying effective candidate agents for ALS patients.
The model mice were used to confirm the in vivo effect of ADNF on neurotoxicity induced by G93A-SOD1.
The G93A-SOD 1 Tg mice were purchased from Jackson Laboratories (Bar Harbor, Me.). The G93A-SOD1 Tg mice were kept as hemizygote mice by the mating thereof with C57BL/6J mice (CLEA Japan, Inc). The mice were raised in a SPF room (specific pathogen-free animal facility; 23±1° C., 55±5% humidity) in the 12-hour light/[…] (7:00 AM-7:00 PM). The mice were freely fed with gamma ray-irradiated Picolab Rodent Diet 20 (PMI Feeds Inc. St. Louis, Mo.) and sodium hyposulfite (5 ppm)-containing aseptic deionized distilled water.
The G93A-SOD1 Tg mice at 10 weeks of age were put under anesthesia by the intraperitoneal injection of 10% sodium pentobarbital (60 mg/kg). A hole was made on the cranial bone with a drill on the operating table of a stereotactic instrument to aseptically transplant the C315GS-4 cannula system for mouse (Plastics One Inc., Roanoke, Va.) to the mouse left cerebral ventricle. The cannula was fixed with a surgical adhesive and dental cement. The mice at 80 days of age were divided at random to a saline (control)-administered group (n=8) and an ADNF-administered group (n=11), and 3 μl of saline and 3 μl of 30 nmol ADNF were intracerebroventricularly (icv) injected each day to the former and the latter groups, respectively, until the end of the experiment. The injection was performed with the cannula in C3151S-4 connected to Hamilton syringe through a cannula tube (C232, PE50/Thin wall, Plastic One).
The motor function (motor performance) was evaluated weekly with a rotarod (CLEA Japan Inc). After the cannulation, the mice were acclimated to the rotarod for 2 days. The mice were placed onto a rotating rod moving at 5 rpm, and the time for which each mouse could remain on the rod was automatically detected. The test was conducted according to the protocol wherein the test was completed as a score of 7 minutes if the mouse remained on the rod for 7 minutes (Li M, et al., 2000, Science 288: 335-339; and Kaspar B K, et al., 2003, Science 301: 839-842). Disease onset was defined as the first day when the mouse could not remain on the rotarod for 7 minutes.
Death was defined when the mouse was unable to right itself within 30 seconds after being placed on its back (Li M, et al., supra).

Question: What does the source list for “SALLRSIPA [ADNF, short peptide consisting of nine amino acid residues]”?
Answer: SOD1 gene expression levels (SOD1 proteins): not affected; cell death inhibition ([1]; 10 aM ADNF, three SOD1 mutant genes, 72 hours): hardly exhibited cell death inhibition; cell mortality induced by SOD1 mutant genes ([1]; 100 fM ADNF, A4T-, G85R-, G93R-SOD1, 72 hours after transformation): completely decreased cell mortalities induced by these three types of SOD1 mutant genes to the level of the control; protective action on cell death caused by SOD1 mutant genes ([1]; ADNF at concentrations equal to or above 10 nM): complete protective action; disease onset versus saline-administered group (G93A-SOD1 Tg mice; 30 nmol ADNF icv each day): prone to be delayed; also recorded: no significant difference; survival rate versus ALS control mice (G93A-SOD1 Tg mice; 30 nmol ADNF icv each day): no difference; Survival days (G93A-SOD1 Tg mice; 30 nmol ADNF icv each day, n = 11): 155.3 ± 3.7 days and 155.3 ± 2.2 days; Disease onset days (G93A-SOD1 Tg mice; 30 nmol ADNF icv each day, n = 11, onset = first day unable to remain on rotarod for 7 minutes): 127.3 ± 2.6 days; motor performance (rotarod) versus control mice (G93A-SOD1 Tg mice; Week 16, 30 nmol ADNF icv each day from 80 days of age): significantly better than that of the control mice; motor performance (rotarod) versus control mice (G93A-SOD1 Tg mice; Week 18 to Week 20, 30 nmol ADNF icv each day): this difference between the control mice and the ADNF-treated mice disappeared
